PubChem BioAssay AID179 (DTP/NCI, 2004)
Where “and” joins values, the source holds several entries; their conditions need not be identical. Identical values can stand only once. Calls of active or inactive are those of the source.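 How the source made its calls: active means compounds giving half or more protection of infected cells from virus-caused growth loss, again on retest; inactive means the rest.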 Where a SMILES comes first, the peptide text is derived from it.

Test system: CEM cells HIV-1 protection, formazan growth assay
Assay: NCI AIDS Antiviral Assay
Conditions: for IC50: measured here: growth of uninfected CEM cells
How it was run: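 Human CEM cells, uninfected and HIV-1-infected, exposed to five drug concentrations; growth measured by soluble formazan assay and scored as percent protection from infection, with protecting compounds retested.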

SMILES | outcome | EC50 | IC50
CNC1C(OC2C(OC3C(O)C(O)C(N=C(N)N)C(O)C3N=C(N)N)OC(C)C2(O)/C=N/NC(N)=S)OC(CO)C(O)C1O (stereo unspecified) | inactive | – | –
COc1cc(-c2cc(=O)c3c(OC)c(OC)c(OC)c(OC)c3o2)cc(OC)c1OC | – | > 200 µM | 28.2 µM
COc1ccc(/C=C2/SC(c3ccccc3)N(NC(=O)CCCCCCCCC(=O)NN3C(=O)/C(=C\c4ccc(OC)c(OC)c4)SC3c3ccccc3)C2=O)cc1OC (stereo unspecified) | – | > 200 µM | 91.2 µM
CN1CC[C@]2(C)c3ccc(O)cc3CC3CCCC1C32C (stereo partly specified) | inactive | – | –
Cc1cccc(C(C)C)c1NC(=O)/C(Cc1c([N+](=O)[O-])cccc1[N+](=O)[O-])=N/NC(=O)CC#N | – | > 145 µM | > 145 µM
c1ccc(C2CCCNCC2)cc1 (stereo unspecified) | inactive | – | –
COc1cc(/C=C(\C)[N+](=O)[O-])cc(OC)c1 | – | > 200 µM | 3.39 µM
CCOP(=O)(OCC)/C(C#N)=C/c1ccc(N(C)C)cc1 | – | > 813 µM | 437 µM
O=C(NCCc1c[nH]c2ccccc12)C1CCCCC1 | – | > 200 µM | 67.6 µM
CC(=O)OC1CC2C(=O)C(=O)C1(C)C2(C)C (stereo unspecified) | – | > 200 µM | > 200 µM
NC(=O)C1CCCN1C(=O)C(N)Cc1ccccc1 (stereo not drawn) (H-Phe-Pro-NH2; configuration not given here) | – | > 200 µM | > 200 µM
CC(=O)Nc1cc(=O)[nH]c2c1CCC2 | inactive | – | –
CCCCCc1cc(OC(=O)c2c(O)cc(OC)cc2CCCCC)cc(O)c1C(=O)O | – | > 295 µM | 29.5 µM
CC(=O)Nc1ccc2cc(C)c(=O)[nH]c2n1 | – | > 200 µM | > 200 µM
CCCCCCCCCCCCCCCCOC1OC(CS(=O)(=O)O)C(O)C(O)C1O (stereo unspecified) | – | > 138 µM | 40.7 µM
COC(=O)C1=C(C(=O)OC)N2c3ccccc3-n3c(-c4ccccc4)cc(OC)c3C2(C)C(C(=O)OC)=C1C(=O)OC (stereo unspecified) | – | > 53.7 µM | > 53.7 µM
CCCC(=O)Oc1c(Cl)cc(C(=CCC[C@H]2CC[C@@]3(C)[C@@H](CC[C@@H]4[C@@H]3CC[C@]3(C)[C@@H]([C@H](C)CCCC(C)C)CC[C@@H]43)C2)c2cc(Cl)c(OC(=O)CCC)c(C(=O)O)c2)cc1C(=O)O | – | 79.4 µM | > 100 µM
COC(=O)[C@@H]1C[C@@]23CCCN4CC[C@@]5(c6cccc(OC)c6N(C=O)[C@]15CC2)[C@@H]43 | – | > 66.1 µM | > 66.1 µM
CCC(C)/C(=C\C(=O)O)C(=O)O (stereo unspecified) | – | > 200 µM | > 200 µM
COc1ccc2cc1Oc1ccc(cc1)C[C@H]1c3cc(c(OC)cc3CCN1C)Oc1c(OC)c(OC)cc3c1[C@H](C2)N(C)CC3 | inactive | > 21.9 µM | 12.3 µM
C=CCc1cccc2cc(C(=O)Nc3nc(C45CC6CC(CC(C6)C4)C5)cs3)c(=O)oc12 | – | > 100 µM | > 100 µM

SMILES | outcome | EC50 | IC50
O=C(NC(C(F)(F)F)(C(F)(F)F)P(=O)(c1ccccc1)c1ccccc1)C(C(F)(F)F)C(F)(F)F | – | > 200 µM | 11.7 µM
Cc1ccc(NC(=O)COC(=O)c2cccc3c(=O)c4ccccc4[nH]c23)cc1 | inactive | – | –
COC1=CC(=O)c2nc(C)ccc2C1=O | inactive | – | –
COC(=O)c1cc(C(c2cc(C)c(O)c(C(=O)OC)c2)c2cc(C)c(O)c(C(=O)OC)c2)cc(C)c1O | inactive | – | –
O=C1c2ccccc2C(=O)C1(Cl)C1(S(=O)(=O)O)c2ccccc2-c2ccccc21 | inactive | – | –
COc1cccc2c1OC(c1ccc(Cl)cc1)C([N+](=O)[O-])=C2 (stereo unspecified) | – | > 200 µM | 1.45 µM
Cc1nc(C)c(N2CCN(CN)CC2)c(=O)[nH]1 | – | > 200 µM | > 200 µM
COP(=O)(OC)C(C)(C)NC(=O)NC(F)(F)F | – | > 200 µM | > 200 µM
Cc1ccc(N=NC(C2=NC(=O)CS2)c2nc3ccccc3[nH]2)cc1 (stereo unspecified) | – | > 7.41 µM | > 7.41 µM
Cc1cc(S(=O)(=O)Nc2nc(N)nc(N(C)C)n2)c(SC(C(=O)O)c2ccccc2)cc1Cl (stereo unspecified) | – | 85.1 µM | > 200 µM
NC(Cc1cc(O)c(O)c(S(=O)(=O)c2ccccc2)c1)C(=O)O (stereo unspecified) | inactive | – | –
O=[N+]([O-])c1[nH]cnc1S | – | > 200 µM | > 200 µM
Cc1ccc(SSCCN)cc1 | – | > 200 µM | 11.7 µM
CC(=O)c1c2c(cc3c1CC1(C3)Cc3cc4c(c(C(=O)O)c3C1)CCC4)CCC2 (stereo unspecified) | – | > 18.6 µM | > 18.6 µM
COc1cccc(/C(C=O)=C(\Cl)c2ccc(OC)c(OC)c2)c1 | – | > 21.9 µM | 11.5 µM
O=C(NNC1=NCCCN1)c1ccco1 | – | > 200 µM | > 200 µM
C=C1CN(S(=O)(=O)c2ccc([N+](=O)[O-])cc2)CC(=C)CN(S(=O)(=O)c2ccc([N+](=O)[O-])cc2)C1 | – | > 200 µM | > 200 µM
COc1cccc(-c2nc(-c3cnccn3)n(COCCO)n2)c1 | – | > 200 µM | > 200 µM
FC(F)(Sc1ccccn1)c1nc2ccccc2o1 | – | 14.8 µM | 89.1 µM
CSc1c2c(C)n[nH]c2nn1-c1ccccc1 | – | > 200 µM | 12.3 µM
NNC(=O)C(=O)N/N=C1\CCC(=O)CC1C(=O)CCC(=O)Nc1ccc(Cl)cc1 (stereo unspecified) | – | > 32.4 µM | > 32.4 µM

SMILES | outcome | EC50 | IC50
N/C(=N\N=C(/N)C(F)(F)F)C(F)(F)F | – | > 200 µM | > 200 µM
Cc1cn(C2CC(N(O)C(N)=O)C(CO)O2)c(=O)[nH]c1=O (stereo unspecified) | – | > 200 µM | > 200 µM and 107 µM
Cn1c2ccccc2c(=NNc2ccc(S(N)(=O)=O)cc2)c2ccccc21 | – | > 200 µM | 17.4 µM
CO[C@@]12[C@@H]3N[C@@H]3CN1C1=C(C(=O)C(NCCc3ccccn3)=C(C)C1=O)[C@@H]2COC(N)=O | – | > 200 µM | 2 µM
COc1ccc(C2c3cc4c(cc3OC(O)(CO)C2C(=O)O)OCO4)c(OC)c1OC (stereo unspecified) (tested in a mixture with another compound) | inactive | – | –
CCOc1ncn(-c2ccc(NC(=S)Nc3cccc(O)c3)cc2)n1 | – | > 200 µM | > 200 µM
Cn1c(C(=O)/C=C/c2ccc([N+](=O)[O-])cc2)nc2ccccc21 | – | > 200 µM | 33.1 µM
O=C(N1CCN(CCO)CC1)N1c2ccccc2Sc2ccccc21 | – | > 200 µM | 117 µM
CN(C)CCCn1c(-c2ccc(Br)cc2)csc1=Nc1ccccc1 | – | > 200 µM | 9.77 µM
S=c1nc2sc3c(c2c(Nc2ccc(Cl)cc2)[nH]1)CCCC3 | – | 43.7 µM | 132 µM
C=C1CN=C(Nc2ccc(F)cc2F)S1 | – | > 200 µM | > 100 µM
COc1cc(OC)cc(-n2c(N)c(C#N)c3ccc([N+](=O)[O-])cc3c2=O)c1 | – | > 200 µM | > 200 µM
CC(=O)CCCC(CC(C)O)[Si](C)(C)C (stereo unspecified) | – | > 1070 µM | 562 µM
CN(NC(=O)/C(=C/c1c(O)ccc2ccccc12)NC(=O)c1ccccc1)c1cn[nH]c(=O)c1Cl | – | > 200 µM | > 200 µM
O=[N+]([O-])c1ccc(-c2ccc(/C=N/n3c(-c4ccc(Cl)cc4)n[nH]c3=S)o2)cc1 | – | > 1.23 µM | > 1.23 µM
COC(=O)[C@H](C)N1C(=O)N[C@@H](C(C)C)C1=O | – | 0.617 µM | > 200 µM
COc1ccc(Br)c2c1CC(C(=O)O)CC2 (stereo unspecified) | – | > 457 µM | 234 µM
CO/N=C(/C(=O)N(C(=O)/C(=N/OC)c1csc(NC(c2ccccc2)(c2ccccc2)c2ccccc2)n1)n1cnn(CC(=O)OC(C)(C)C)c1=O)c1csc(NC(c2ccccc2)(c2ccccc2)c2ccccc2)n1 | – | > 200 µM | 174 µM
CC(C(=O)O)c1ccc2oc(-c3ccc(Cl)cc3)nc2c1 (stereo unspecified) | – | > 200 µM | > 200 µM
CC(=O)OC/C=C(/C)C[P+](c1ccccc1)(c1ccccc1)c1ccccc1 | – | > 200 µM | 0.955 µM
CN(C)CCNCCCNc1c2ccccc2nc2cccc([N+](=O)[O-])c12 | – | > 2 µM | 0.0129 µM

SMILES | outcome | EC50 | IC50
CCOP(=O)(OCC)/C(C#N)=C/c1ccc(C#N)cc1 | – | > 123 µM | > 123 µM
COC(=O)/C(C#N)=C1\NC(=O)CC(c2ccccc2)C1C#N (stereo unspecified) | – | > 200 µM | 57.5 µM
NS(=O)(=O)c1ccc(Nc2c3ccccc3nc3ncccc23)cc1 | – | > 200 µM | > 200 µM
COC(=O)C(=O)C1CCCC(c2nc3n(c2O)C(=N)N=N3)C1=O (stereo unspecified) | – | > 776 µM | > 776 µM
O=C(c1ccccc1)N1OCCC1Nc1ccc(Br)cc1 (stereo unspecified) | inactive | – | –
CC1=C(/C=C/C(C)=C/C=C(C(=O)O)\C(C)=C\C(=O)O)C(C)(C)CCC1 | – | > 200 µM | > 200 µM
Cc1cc2cc3n(c2nn1)N=C(Cl)CC3 | – | > 339 µM | 6.31 µM
CC1C(c2ccccc2)OCN1CC=C(c1ccsc1)c1ccsc1 (stereo unspecified) | – | > 200 µM | 15.1 µM
CCOC(=O)C(=O)Nc1c(C)cccc1C(C)(C)C | – | > 135 µM | > 135 µM
Oc1c2cc(Cl)cc1COCc1cc(Cl)cc(c1O)COCc1cc(Cl)cc(c1O)COC2 | – | > 200 µM | 38.9 µM
O=c1[nH]c(=O)n(COCc2ccccc2)c2ccc(Br)cc12 | – | > 200 µM | > 200 µM
O=S1(=O)NNC(=NCc2ccc(Cl)cc2)c2ccccc21 | inactive | – | –
CC(C)(C)[Si](C)(C)OC[C@H]1O[C@@H](n2ccc(=O)[nH]c2=O)[C@H](O[Si](C)(C)C(C)(C)C)[C@@]12N[C@H](C(=O)O)CS2 | – | > 200 µM | 10 µM
CCOc1ccc(NC(=O)C(=O)CC(=O)C2=C(C)Nc3ccccc3S2)cc1 | – | > 64.6 µM | > 64.6 µM
Cc1ccc2c(c1)C(c1cccc3ccccc13)OC2=O (stereo unspecified) | inactive | – | –
O=C(O)CCCCCCCc1cccc(OCCO)c1 | – | > 200 µM | > 200 µM
CC1C2c3ccccc3C(c3ccccc32)C1CN1C(CCO)COC1c1ccccc1 (stereo unspecified) | – | > 200 µM | 38 µM
COc1ccc(CC(=O)C2C(=O)N(C)c3ccccc32)cc1OC (stereo unspecified) | – | > 200 µM | 44.7 µM
CC(O)(P(=O)(O)O)P(=O)(O)O.[NH-]CC[NH-].[NH-]CC[NH-].[Pd+2].[Pd+2] | – | > 200 µM | 87.1 µM
C=CCc1cc(CN2CCN(C)CC2)c(O)c(OC)c1 | – | > 200 µM | > 200 µM
O=[N+]([O-])c1ccc2[nH]c(=S)n(/C=C(/c3ccc(Cl)cc3)S(=O)(=O)Cc3ccc(Cl)cc3)c2c1 | – | > 200 µM | 102 µM
